Results as given in ChEMBL document CHEMBL1145508, “Role of homoserine transacetylase as a new target for antifungal agents” (Antimicrob Agents Chemother, 2007).

Tests used:
[1] = Inhibition of Schizosaccharomyces pombe HTA in presence of 10 uM acetyl-CoA substrate
[2] = Inhibition of Cryptococcus neoformans H99 HTA expressed in Escherichia coli BL21(DE3) cells
[3] = Inhibition of Schizosaccharomyces pombe HTA in presence of 100 uM acetyl-CoA substrate

IC50 [1]: 156 µM | IC50 [2]: 4.5 µM | IC50 [3]: 287 µM
SMILES: NC(=O)c1cccc2c1NC(C(=O)O)C1CC=CC21 (centres undefined)
Ki [2]: 91.7 µM
